What was measured:
Experiment in all cases: Determination of the bactericidal activity (logarithmic reduction in organism count)
Conditions in all cases: contact for 30 minutes at a substance concentration of 120 μg/mL
[1] = test system: S. choleraesuis ATCC 10708; format: cell-based, Salmonella choleraesuis
Method: (§1) Determination of the Bactericidal Activity of Selected Compounds
(§2) Casein-soybean flour-peptone broth for preparation of pre-cultures of test bacteria
(§3) Examples of Test Organisms:
(§4) • Staphylococcus aureus ATCC 6538 • Escherichia coli ATCC 10536 • Salmonella choleraesuis ATCC 10708 Procedure:
(§5) The test substances are dissolved in dimethyl sulfoxide (DMSO) and tested in a concentration of 120 μg/ml.
(§6) Bacteria are incubated overnight in CASO broth and adjusted to an organism count of 1–5×10^5 CFU/ml using 0.85% sodium chloride solution.
(§7) The test substances are pre-pipetted into microtitre plates in amounts of 8 μl per well.
(§8) The adjusted test organism suspensions are added in amounts of 192 μl per well to the test substances and mixed. After defined contact times, the test batches are mixed, an aliquot is withdrawn and diluted in several steps in a dilution series of 1:10 in a suitable inactivation medium.
The test plates are incubated for 24 hours at 37° C. […]
(§9) One microtitre plate is used for each test organism.
(§10) All the substances are tested in duplicate.

[2] = test system: E. coli NCTC 8196; format: cell-based, Escherichia coli
[3] = test system: S. aureus ATCC 6538; format: cell-based, Staphylococcus aureus
Method: as §1, §2, §3, §4, §5, §6, §7, §8
The test plates are incubated for 24 hours at 37° C.
After incubation, the growth is determined on the basis of the turbidity of the test batches (optical density) at 620 nm in a microplate reader.
as §9, §10

| Structure (SMILES) | Logarithmic reduction in organism count, S. choleraesuis ATCC 10708 [1] | Logarithmic reduction in organism count, E. coli NCTC 8196 [2] | Logarithmic reduction in organism count, S. aureus ATCC 6538 [3] |
| --- | --- | --- | --- |
| CCCCCCCCCCCCCCCCNc1cc(C(F)(F)F)nc(-c2ccccn2)n1 [Compound of formula 37] | <1 log | <1 log | 1–2 log |
| CCCCCCCCCNc1nc(-c2ccccn2)nc(C)c1C(C)C [Compound of formula 70] | <1 log | ≦1 log | ≦1 log |
| CCCCCCCCCNc1cc(C(C)(C)C)nc(-c2ccccn2)n1 [Compound of formula 58] | ≦1 log | ≦1 log | 1 log |
| CCCCCCCCNc1cc(C(C)(C)C)nc(-c2ccccn2)n1 [Compound of formula 57] | <1 log | <1 log |  |
| CCCCCCCCCCCCNc1cc(C(C)(C)C)nc(-c2ccccn2)n1 [Compound of formula 60] | <1 log | <1 log | <1 log |
| CCCCCCCCNc1nc(-c2ccccn2)nc(C)c1C(C)C [Compound of formula 69] | ≦1 log | <1 log | 1–2 log |
| CCCCCCCCCNc1cc(C)nc(-c2ccccn2)n1 [Compound of formula 22] | <1 log | <1 log | 1–2 log |
| CCCCCCCCCCCCNc1nc(-c2ccccn2)nc(C)c1CC [Compound of formula 12] | <1 log | <1 log | 1–2 log |
| CCCCCCCCCCCCCCCNc1cc(C(C)C)nc(-c2ccccn2)n1 [Compound of formula 99] | <1 log | ≦1 log | 2 log |
| CCCCCCCCCCNc1nc(-c2ccccn2)nc(C)c1CC [Compound of formula 11] | <1 log | ≦1 log | 1–2 log |
